Measurements as given in ChEMBL document CHEMBL3612043, “Synthesis and biological evaluation of 6-substituted indolizinoquinolinediones as catalytic DNA topoisomerase I inhibitors” (Eur J Med Chem, 2015).
Calls of active or inactive are those of the source. No cut-off for these calls is given here.

Experiments:
[1] = biological target: T1, DNA topoisomerase 1 (Homo sapiens) (UniProt P11387); experiment: Induction of recombinant Top1 (unknown origin) assessed as 3'-[32P]-labeled 117-bp DNA oligonucleotide cleavage after 20 mins
T1 sequence (whole entry): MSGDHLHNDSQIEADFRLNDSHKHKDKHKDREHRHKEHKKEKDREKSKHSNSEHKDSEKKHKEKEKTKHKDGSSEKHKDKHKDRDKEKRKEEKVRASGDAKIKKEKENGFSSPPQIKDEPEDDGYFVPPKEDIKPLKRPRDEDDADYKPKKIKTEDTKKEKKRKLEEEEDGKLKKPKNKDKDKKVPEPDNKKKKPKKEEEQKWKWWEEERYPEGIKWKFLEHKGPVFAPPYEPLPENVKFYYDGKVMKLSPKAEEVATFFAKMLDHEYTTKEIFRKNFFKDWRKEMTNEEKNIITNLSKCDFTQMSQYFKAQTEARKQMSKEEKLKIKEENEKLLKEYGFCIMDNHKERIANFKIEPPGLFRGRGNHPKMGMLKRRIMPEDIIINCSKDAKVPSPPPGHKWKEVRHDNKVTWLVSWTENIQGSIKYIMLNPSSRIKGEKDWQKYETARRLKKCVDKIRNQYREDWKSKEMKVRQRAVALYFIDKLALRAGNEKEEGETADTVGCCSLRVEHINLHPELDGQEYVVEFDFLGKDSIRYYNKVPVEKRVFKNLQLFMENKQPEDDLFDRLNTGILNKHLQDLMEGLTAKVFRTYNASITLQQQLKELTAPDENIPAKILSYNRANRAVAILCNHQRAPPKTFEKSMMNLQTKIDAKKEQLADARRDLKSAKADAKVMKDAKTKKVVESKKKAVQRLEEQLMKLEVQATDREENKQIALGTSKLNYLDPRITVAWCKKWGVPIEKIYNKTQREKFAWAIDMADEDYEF

[2] = organism: Bos taurus; experiment: Inhibition of calf thymus Top1-mediated pBR322 DNA relaxation at 25 uM preincubated for 15 mins measured after 30 mins by ethidium bromide staining relative to camptothecin
[3] = tested on: CA46; experiment: Cytotoxicity against human CA46 cells after 48 hrs by MTT assay; type: functional, cell-based; details: CA46, 48 h
[4] = tested on: HL-60; experiment: cells; details: Homo sapiens, HL-60, 48 h
Description: Cytotoxicity against human HL60 cells after 48 hrs by MTT assay

[5] = tested on: HeLa; experiment: cells; details: Homo sapiens, 48 h
Description: Cytotoxicity against human HeLa cells after 48 hrs by MTT assay

[6] = tested on: A549; experiment: cells; details: Homo sapiens, A549, 48 h
Description: Cytotoxicity against human A549 cells after 48 hrs by MTT assay

[7] = biological target: T1, DNA topoisomerase 1 (Homo sapiens); experiment: Inhibition of Top1 (unknown origin)-mediated unwinding of relaxed pBR322 DNA preincubated for 10 mins measured after 30 mins by UV transilluminator analysis
[8] = Inhibition of calf thymus Top1-mediated pBR322 DNA relaxation preincubated for 15 mins measured after 30 mins by ethidium bromide staining; parameters: species or system Bos taurus

In the case of O=C1c2cccnc2C(=O)c2c1c(C(=O)N1CCOCC1)c1ccccn21, the Activity [1] is reported as “inactive”, the Top1 relaxation inhibition relative to camptothecin (%) [2] is reported as less than 40% and the IC50 [3] is reported as 13000 nM. The IC50 [4] was 22000 nM, the IC50 [5] was greater than 100000 nM and the IC50 [6] was 77000 nM.

For O=C1c2cccnc2C(=O)c2c1c(C(=O)OCCN1CCOCC1)c1ccccn21, the Activity [1] was “inactive”, the Top1 relaxation inhibition relative to camptothecin (%) [2] was greater than 120% and the inhibition [7] was “inactive”. The IC50 [3] was 5800 nM, the IC50 [4] was 34 nM and the IC50 [5] was 10000 nM. The IC50 [6] was less than 10 nM.

In the case of O=C1c2cccnc2C(=O)c2c1c(C(=O)OCCCBr)c1ccccn21, the Activity [1] is reported as “inactive”.

In the case of O=C1c2cccnc2C(=O)c2c1c(C(=O)OCCBr)c1ccccn21, the Activity [1] is reported as “inactive”.

In the case of CN(C)CCNC(=O)c1c2c(n3ccccc13)C(=O)c1ncccc1C2=O, the Activity [1] is reported as “inactive”, the Top1 relaxation inhibition relative to camptothecin (%) [2] is reported as greater than 120% and the inhibition [7] is reported as “Active”. The IC50 [3] was 5900 nM, the IC50 [4] was 1200 nM and the IC50 [5] was 920 nM. The IC50 [6] was 610 nM.

In the case of CCNC(=O)c1c2c(n3ccccc13)C(=O)c1ncccc1C2=O, the Activity [1] is reported as “inactive”.

For CCOC(=O)c1c2c(n3ccccc13)C(=O)c1ncccc1C2=O, the Activity [1] was “inactive”, the Top1 relaxation inhibition relative to camptothecin (%) [2] was 81% and the inhibition [7] was “inactive”. The IC50 [3] was 3700 nM, the IC50 [4] was 300 nM and the IC50 [5] was 22000 nM. The IC50 [6] was 1400 nM.

For O=C1c2cccnc2C(=O)c2c1c(C(=O)NCCN1CCCC1)c1ccccn21, the Activity [1] was “inactive”, the Top1 relaxation inhibition relative to camptothecin (%) [2] was greater than 120% and the inhibition [7] was “Active”. It also gave an IC50 [3] of 15000 nM, an IC50 [4] of 1200 nM and an IC50 [5] of 780 nM. For the same compound, the IC50 [6] was 490 nM.

With CN1CCN(CCNC(=O)c2c3c(n4ccccc24)C(=O)c2ncccc2C3=O)CC1 the Activity [1] was “inactive”, the Top1 relaxation inhibition relative to camptothecin (%) [2] was greater than 120% and the inhibition [7] was “Active”. The IC50 [3] was 1100 nM, the IC50 [4] was 2800 nM and the IC50 [5] was 1000 nM. For the same compound, the IC50 [6] was 440 nM.

With O=C1c2cccnc2C(=O)c2c1c(C(=O)NCCN1CCOCC1)c1ccccn21 the Activity [1] was “inactive”, the Top1 relaxation inhibition relative to camptothecin (%) [2] was greater than 120% and the inhibition [7] was “Active”. The IC50 [3] was 3400 nM, the IC50 [4] was 1200 nM and the IC50 [5] was 1600 nM. It also gave an IC50 [6] of 890 nM.

For O=C1c2cccnc2C(=O)c2c1c(C(=O)NCCN1CCCCC1)c1ccccn21, the Activity [1] was “inactive”.

In the case of CCN(CC)CCCNC(=O)c1c2c(n3ccccc13)C(=O)c1ncccc1C2=O, the Activity [1] is reported as “inactive”, the Top1 relaxation inhibition relative to camptothecin (%) [2] is reported as greater than 120% and the inhibition [7] is reported as “Active”. The IC50 [3] was 1200 nM, the IC50 [4] was 1400 nM and the IC50 [5] was 1300 nM. For the same compound, the IC50 [6] was 1000 nM.

In the case of O=C1c2cccnc2C(=O)c2c1c(C(=O)OCCN1CCCC1)c1ccccn21, the Activity [1] is reported as “inactive”.

In the case of CN1CCN(C(=O)c2c3c(n4ccccc24)C(=O)c2ncccc2C3=O)CC1, the Activity [1] is reported as “inactive”, the Top1 relaxation inhibition relative to camptothecin (%) [2] is reported as 40% and the IC50 [3] is reported as 2600 nM. It also gave an IC50 [4] of 5700 nM, an IC50 [5] of 62000 nM and an IC50 [6] of 30000 nM.

For O=C1c2cccnc2C(=O)c2c1c(C(=O)OCCCN1CCCCC1)c1ccccn21, the Activity [1] was “inactive”, the Top1 relaxation inhibition relative to camptothecin (%) [2] was greater than 120% and the inhibition [7] was “Active”. It also gave an IC50 [3] of 900 nM, an IC50 [4] of 25 nM and an IC50 [5] of 480 nM. For the same compound, the IC50 [6] was 1000 nM.

With CC[C@@]1(O)C(=O)OCc2c1cc1n(c2=O)Cc2cc3ccccc3nc2-1 [CAMPTOTHECIN] the Activity [1] was “inactive”, the IC50 [8] was 25 µM and the Top1 relaxation inhibition relative to camptothecin (%) [2] was 81%. For the same compound, the IC50 [3] was 520 nM, the IC50 [4] was 15 nM and the IC50 [5] was 14000 nM. It also gave an IC50 [6] of 1600 nM.

For O=C1c2cccnc2C(=O)c2c1c(C(=O)OCCN1CCCCC1)c1ccccn21, the Activity [1] was “inactive”, the Top1 relaxation inhibition relative to camptothecin (%) [2] was greater than 120% and the inhibition [7] was “Active”. The IC50 [3] was 3000 nM, the IC50 [4] was 320 nM and the IC50 [5] was 2200 nM. It also gave an IC50 [6] of 520 nM.

For O=C1c2cccnc2C(=O)c2c1c(C(=O)N1CCCCC1)c1ccccn21, the Activity [1] was “inactive”, the Top1 relaxation inhibition relative to camptothecin (%) [2] was less than 40% and the IC50 [3] was 13000 nM. The IC50 [4] was 52000 nM, the IC50 [5] was 19000 nM and the IC50 [6] was 76000 nM.

With CN1CCN(CCCNC(=O)c2c3c(n4ccccc24)C(=O)c2ncccc2C3=O)CC1 the Activity [1] was “inactive”, the Top1 relaxation inhibition relative to camptothecin (%) [2] was greater than 120% and the inhibition [7] was “Active”. For the same compound, the IC50 [3] was 3800 nM, the IC50 [4] was 2200 nM and the IC50 [5] was 8900 nM. It also gave an IC50 [6] of 5500 nM.

With O=C1c2cccnc2C(=O)c2c1c(C(=O)OCCc1ccccn1)c1ccccn21 the Activity [1] was “inactive”, the Top1 relaxation inhibition relative to camptothecin (%) [2] was 81% and the inhibition [7] was “inactive”. For the same compound, the IC50 [3] was 2900 nM, the IC50 [4] was 110 nM and the IC50 [5] was 1100 nM. For the same compound, the IC50 [6] was 7800 nM.

In the case of O=C1c2cccnc2C(=O)c2c1c(C(=O)NCCn1ccnc1)c1ccccn21, the Activity [1] is reported as “inactive”, the Top1 relaxation inhibition relative to camptothecin (%) [2] is reported as greater than 120% and the inhibition [7] is reported as “inactive”. It also gave an IC50 [3] of 2900 nM, an IC50 [4] of 2300 nM and an IC50 [5] of 5800 nM. It also gave an IC50 [6] of 2300 nM.

With O=C1c2cccnc2C(=O)c2c1c(C(=O)NCCCN1CCCC1)c1ccccn21 the Activity [1] was “inactive”, the Top1 relaxation inhibition relative to camptothecin (%) [2] was greater than 120% and the inhibition [7] was “Active”. The IC50 [3] was 2700 nM, the IC50 [4] was 1900 nM and the IC50 [5] was 1800 nM. It also gave an IC50 [6] of 1200 nM.

With O=C1c2cccnc2C(=O)c2c1c(C(=O)NCCCN1CCCCC1)c1ccccn21 the Activity [1] was “inactive”, the Top1 relaxation inhibition relative to camptothecin (%) [2] was greater than 120% and the inhibition [7] was “Active”. It also gave an IC50 [3] of 1200 nM, an IC50 [4] of 1300 nM and an IC50 [5] of 1200 nM. The IC50 [6] was 3300 nM.

In the case of CN(C)CCCNC(=O)c1c2c(n3ccccc13)C(=O)c1ncccc1C2=O, the Activity [1] is reported as “inactive”, the Top1 relaxation inhibition relative to camptothecin (%) [2] is reported as greater than 120% and the inhibition [7] is reported as “Active”. It also gave an IC50 [3] of 1200 nM, an IC50 [4] of 2300 nM and an IC50 [5] of 960 nM. For the same compound, the IC50 [6] was 370 nM.

In the case of CCN(CC)C(=O)c1c2c(n3ccccc13)C(=O)c1ncccc1C2=O, the Activity [1] is reported as “inactive”, the Top1 relaxation inhibition relative to camptothecin (%) [2] is reported as less than 40% and the IC50 [3] is reported as 15000 nM. For the same compound, the IC50 [4] was 14000 nM, the IC50 [5] was 46000 nM and the IC50 [6] was 64000 nM.

With O=C1c2cccnc2C(=O)c2c1c(C(=O)OCCCN1CCOCC1)c1ccccn21 the Activity [1] was “inactive”, the Top1 relaxation inhibition relative to camptothecin (%) [2] was greater than 120% and the inhibition [7] was “Active”. The IC50 [3] was 1400 nM, the IC50 [4] was 64 nM and the IC50 [5] was 2200 nM. It also gave an IC50 [6] of 1900 nM.

For O=C1c2cccnc2C(=O)c2c1c(C(=O)NCCCc1ccccc1)c1ccccn21, the Activity [1] was “inactive”, the Top1 relaxation inhibition relative to camptothecin (%) [2] was 40% and the IC50 [3] was 14000 nM. The IC50 [4] was 75000 nM, the IC50 [5] was 29000 nM and the IC50 [6] was 15000 nM.

For O=C1c2cccnc2C(=O)c2c1c(C(=O)NCCc1ccccc1)c1ccccn21, the Activity [1] was “inactive”, the Top1 relaxation inhibition relative to camptothecin (%) [2] was less than 40% and the IC50 [3] was 7900 nM. The IC50 [4] was 14000 nM, the IC50 [5] was 17000 nM and the IC50 [6] was 19000 nM.

For O=C1c2cccnc2C(=O)c2c1c(C(=O)NCCCN1CCOCC1)c1ccccn21, the Activity [1] was “inactive”, the Top1 relaxation inhibition relative to camptothecin (%) [2] was greater than 120% and the inhibition [7] was “Active”. The IC50 [3] was 1100 nM, the IC50 [4] was 1300 nM and the IC50 [5] was 5900 nM. It also gave an IC50 [6] of 4200 nM.

For O=C1c2cccnc2C(=O)c2c1c(C(=O)OCCCN1CCCC1)c1ccccn21, the Activity [1] was “inactive”, the Top1 relaxation inhibition relative to camptothecin (%) [2] was greater than 120% and the inhibition [7] was “Active”. The IC50 [3] was 1100 nM, the IC50 [4] was 26 nM and the IC50 [5] was 940 nM. For the same compound, the IC50 [6] was 140 nM.
